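Method: 48-hour compound exposure of cells in 96-well plates, five concentrations, linear interpolation of endpoints. GI50 = concentration required for 50% inhibition of growth. TGI denotes the concentration required for complete inhibition of growth.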
Legend:
Assay in all cases: growth of human tumour cells (NCI), 48 h
[1] = test system: CCRF-CEM leukemia
[2] = test system: SR leukemia
[3] = test system: OVCAR-4 ovarian
[4] = test system: A549 NSCLC
[5] = test system: IGROV1 ovarian
[6] = test system: CAKI-1 renal
[7] = test system: HT29 colon
[8] = test system: EKVX NSCLC
[9] = test system: K-562 leukemia
[10] = test system: MALME-3M melanoma

| SMILES | GI50 [1] [µM] | TGI [1] [µM] | GI50 [2] [µM] | TGI [2] [µM] | GI50 [3] [µM] | TGI [3] [µM] | GI50 [4] [µM] | TGI [4] [µM] | GI50 [5] [µM] | TGI [5] [µM] | GI50 [6] [µM] | TGI [6] [µM] | GI50 [7] [µM] | TGI [7] [µM] | GI50 [8] [µM] | TGI [8] [µM] | GI50 [9] [µM] | TGI [9] [µM] | GI50 [10] [µM] | TGI [10] [µM] |
| --- | --- | --- | --- | --- | --- | --- | --- | --- | --- | --- | --- | --- | --- | --- | --- | --- | --- | --- | --- | --- |
| O=c1c2ccccc2c(C=NCCNCCO)c2oc3ccccc3n12 | 1.47 | 16.1 | 2.48 | 6.62 | 16.6 | 36 | 4.03 | 17 | 7.64 | 24 | 4.08 | 15.5 | 3.33 | 16.5 | 9.3 | 21.2 | 4.31 | 16.4 |  |  |
| CCC(=O)[O-].CCC(=O)[O-].N.N.N.N.[Co+3].[O-][Cl+3]([O-])([O-])[O-] | > 100 | > 100 |  |  | > 100 | > 100 | > 100 | > 100 | > 100 | > 100 |  |  | > 100 | > 100 | > 100 | > 100 | > 100 | > 100 | > 100 | > 100 |
| COc1cc2c(c(OC)c1OC)C(=O)c1c-2n(CCCN)c(=O)c2cc([N+](=O)[O-])ccc12 | 0.285 | 0.834 | 2.41 | 5.44 | 0.372 | 1.47 |  |  | 1.43 | 3.05 | 0.535 | 2.24 | 0.301 |  | 3.02 | 8.32 | 2.86 | 7.98 |  |  |
| CC[O+]=c1cccc2ssnc1-2 |  | > 100 |  |  |  | > 100 |  | > 100 |  | > 100 |  | > 100 |  | > 100 |  | > 100 |  | > 100 |  | > 100 |
| CC(=O)[CH-]C(=O)c1ccccc1.CC(=O)[CH-]C(=O)c1ccccc1.[O-]c1ccc(O)cc1.[O-]c1ccc(O)cc1.[Ti+4] | 1.91 | 7.49 |  |  | 18.2 | 32.3 | 23.5 | > 100 | 23.7 | 63 | 17 | 34.1 | 21.5 | 59.7 |  |  | 15.4 | 76 | 18.1 | 33.5 |
| CC(C)c1cccc2sc(NC(=O)C(=O)CC(=O)c3ccc(F)cc3)nc12 |  | > 100 |  |  |  | > 100 |  | > 100 |  | > 100 |  | > 100 |  | > 100 |  | > 100 |  | > 100 |  | > 100 |
| O=C1c2ccccc2C(=O)c2c1c(NCCNCCO)c1cc[nH]c1c2NCCNCCO | 1.04 |  |  |  | 14.2 | 45.2 | 5.46 | 27.2 | 9.23 | > 100 | > 47.1 | > 100 | 2.78 | > 41.4 | 4.65 | 25.5 | 1.63 |  | 1.8 | 5.16 |
| COC(=O)/C1=C/C2CC(/C=C(/c3ccccc3)C(=O)O1)C2 |  | 70.5 |  |  |  |  |  | > 100 |  | > 100 |  |  |  | 65.4 |  | > 100 |  | 96.1 |  | 54.2 |
| NC(N)=NS(=O)(=O)c1ccc(NC(=O)c2ccc(Cl)c3c(Nc4ccc(S(=O)(=O)N=C(N)N)cc4)c4ccccc4nc23)cc1 |  | > 100 |  |  |  | > 100 |  | > 100 |  | > 100 |  | > 100 |  | > 100 |  | > 100 |  | > 100 |  | > 100 |
| N#CC(C(=N/NC(N)=S)/C(=N\NC(N)=S)C(C#N)c1ccccc1)c1ccccc1 (configuration not stated) |  | > 10 |  |  |  | > 10 |  | > 10 |  |  |  |  |  | > 10 |  | > 10 |  | > 10 |  | > 10 |
| [O-]c1c(-c2ccccc2)[se]c(-c2ccccc2)[n+]1-c1ccccc1 |  | 31.8 |  |  |  | 5.95 |  | 35.9 |  | 13.6 |  | 34.1 |  | 52.9 |  | 35.4 |  | > 100 |  | 29.3 |
| c1ccc(CN2CCC3(CC2)ONC2=NCCN23)cc1 | 31 | > 100 |  |  | > 100 | > 100 | 88.4 | > 100 | 35.8 | > 100 | 30.5 | > 100 | 61.4 | > 100 | > 100 | > 100 | 42.8 | > 100 | > 100 | > 100 |
| CCOc1ccc2c(-c3ccnc(Nc4cccc(C(F)(F)F)c4)n3)cnn2n1 | > 25 | > 25 |  |  | 9.46 | > 25 | 4.4 | 9.19 | 10.9 | > 25 | > 14.7 | > 25 | 10.1 | > 25 | > 17.9 | > 25 | 15.9 | > 25 | > 25 | > 25 |
| CC(=O)c1ccc(NCn2nc(-c3ccccc3O)oc2=S)cc1 |  |  |  |  |  |  | 37.8 | > 100 | > 100 | > 100 | > 100 | > 100 | 47 | > 100 | > 100 | > 100 | > 100 | > 100 |  |  |
| CC1=C(CC/C(C)=C/CCC2(C)CCC([C@H](C)C(=O)O)OO2)C(C)(C)CCC1 (some centres not stated) (tested in a mixture with another compound) |  |  |  |  |  | > 100 |  | > 100 |  |  |  | > 100 |  | > 100 |  | > 100 |  |  |  | > 100 |
| CC(=O)C1C(=O)C(=O)N(c2ccc(Cl)cc2C)C1=O (configuration not stated) |  | > 100 |  | > 100 |  | > 100 |  | > 100 |  | > 100 |  |  |  | > 100 |  | > 100 |  | > 100 |  | > 100 |
| COc1ccc2c3c([nH]c2c1[N+](=O)[O-])C(C)N(C(=O)/C=C/c1ccccc1)CC3 (configuration not stated) |  | > 100 |  | > 100 |  | > 100 |  | 29.2 |  | > 100 |  | > 100 |  | > 100 |  | > 100 |  | > 100 |  |  |
| COc1ccc(-c2ccc(=O)oc2-c2cc(OC)c(OC)c(OC)c2)cc1O | 0.0219 |  |  |  | 0.283 | > 100 | 0.0595 | > 100 | < 0.01 |  | 0.0459 | > 100 | 0.663 |  | 0.0807 | > 100 | < 0.0229 | > 100 |  | > 100 |

From PubChem BioAssay (NCI)
